Data from patent US20230107941A1, “HEPATITIS B CAPSID ASSEMBLY MODULATORS” (Venatorx Pharmaceuticals, Inc., priority 2019, published 2023).

What was measured:
[1] = In vitro cytotoxicity assay (MTT cell viability) in HepG2 cells; type: cell-based, human; details: human
Protocol: To evaluate antiviral selectivity, the cytotoxic activity of each compound was determined using a standard cell viability assay performed on the parental HepG2 cell line. Cell viability was determined by measuring the conversion of 3-(4,5-dimethylthiazol-2-yl)-2,5-diphenyltetrazolium bromide (MTT) to the insoluble formazan salt crystal that occurs in live cells. Briefly, HepG2 cells were seeded in 96-well plates at a density of 20,000 cells per well in […] (complete growth medium) and allowed to adhere overnight in a 37° C., […] humidified incubator. The next day, test agents were prepared by performing 8 half-log10 serial dilutions in 100% DMSO at 200× the final desired concentration in the assay. Compounds were tested over a range of concentrations from 30 μM to 1.0 nM in the assay. HepG2 cells were incubated in the presence of various concentrations of CAMs for 7 days in a 37° C., […] humidified incubator. At the completion of the 7-day incubation period, MTT reagent was added to each well and the mixture was incubated for an additional 3-4 hours. At the completion of the incubation period, all wells were aspirated to remove the culture medium. The formazan crystals were solubilized from the cell monolayers with 100% DMSO. Plates were briefly mixed on an orbital shaker and absorbance was measured at 492 nm using a Perkin-Elmer EnVision multi-label plate reader. All absorbance values were converted to a percentage of the signal obtained from the vehicle treated controls. Absorbance values at 492 nm are directly proportional to the number of viable cells present in the sample. A CC50 value (cytotoxic concentration that results in loss of 50% cell viability) was calculated from the dose-response curve by 4-parameter, non-linear regression analysis using the GraphPad Prism software. The positive control compound, staurosporine, reduced the viability of HepG2 cells in a dose-dependent manner (CC50=100 nM).

HBV = test: In vitro antiviral assay: anti-HBV replication in HepAD38 cells (extracellular HBV DNA by QPCR); type: cell-based, hepatitis B virus (genotype D, serotype ayw); details: Hepatitis B virus, HePAD38, 168 h, 7 days incubation, extracellular HBV DNA by QPCR, read-out: Anti-HBV EC50
Protocol: The anti-HBV activity of the Capsid Assembly Modulators (CAMs) was evaluated in a cell based assay utilizing the human hepatoma cell line HepAD38 (Ladner, S K., et al., 1998). HepAD38 cells were derived from the parental line, HepG2, that were stably transfected with a construct containing an HBV genome (genotype D, serotype ayw) under the control of a tetracycline repressible CMV promoter. Upon removal of tetracycline, viral pre-genomic RNA (pgRNA) and mRNAs are expressed and infectious viral particles are assembled and secreted into the culture medium providing a reliable, robust system to measure multiple steps of the HBV life cycle. Disruption of capsid formation results in reduced levels of DNA-containing virus particles that are released into the culture supernatant. To quantify the effect of CAMs on HBV replication, we developed a sensitive QPCR-based assay that measures extracellular HBV DNA levels upon treatment of HepAD38 cells with various concentrations of test compounds.
HepAD38 cells were maintained in DMEM/F12 medium containing 10% FBS, 400 μg/mL G418 and 0.3 μg/mL tetracycline (tet+ media) to maintain repression of HBV replication. To evaluate each compound, HepAD38 cells were seeded into 24-well collagen coated culture plates (Corning BioCoat) at a density of 200,000 cells per well in 1 mL of medium without tetracycline (tet-media) and allowed to adhere overnight at 37° C., 5% CO2 in a humidified incubator. The following day, media was refreshed and a dose range of each compound was prepared by performing 1 log10 serial dilutions in 100% DMSO at 200× the desired assay concentration. Dilutions were then added to the cells resulting in a final dose range of 1 μM to 10 pM and the plates were returned to the incubator. Following 7 days of incubation, culture supernatants were harvested and HBV DNA levels were evaluated by QPCR and compared to the vehicle treated control wells (i.e. DMSO alone).
To quantify HBV DNA levels, cell culture supernatants were diluted 1:10 in sterile, nuclease-free water (Gibco). The diluted supernatants were subsequently added to a PCR master mix containing 1× Roche Light Cycler Master Mix, 0.5 μM forward primer, 0.5 μM reverse primer (Fwd: 5′-[…] (SEQ ID NO 1); Rev: 5′-[…] (SEQ ID NO 2)), 0.2 μM Roche Universal Probe Library Probe 25. The volume was brought to 20 μL with nuclease-free water and amplification of the HBV target sequence was performed using a Roche LightCycler 480 QPCR instrument. PCR extended out to 45 cycles with each cycle consisting of a denaturation step at 95° C. for 10 sec., followed by an annealing step at 60° C. for 10 sec. and a brief extension step at 72° C. for 1 sec.
Extracellular HBV DNA levels, expressed in copies/mL, were determined by comparison to a standard curve (10^2-10^9 copies/mL) using the Roche LightCycler analysis software. These values were subsequently converted to percent inhibition of HBV replication by dividing the HBV DNA levels in the experimental samples with those obtained from the vehicle control (˜1-2×10^5 copies/mL). Potency, expressed as an EC50 (the effective concentration required to inhibit 50% of HBV replication), was calculated from the dose-response curve using a 4-parameter non-linear regression analysis (GraphPad Prism). The nucleoside analog inhibitor entecavir was used as a positive control to validate each assay run. The EC50 value of entecavir in the HepAD38 assay was 0.5 nM, as previously reported in the literature.

SMILES	CC50 at 7 days [1] [nM]	EC50 (HBV) [nM]
Cc1cc(NC(=O)c2c(C)c(C(=O)C(=O)N3CCOCC3)n(C)c2C)ccc1F [Example 187, N-(4-fluoro-3-methylphenyl)-1,2,4-trimethyl-5-(2-morpholino-2-oxoacetyl)-1H-pyrrole-3-carboxamide]	> 30000	500 to 1000
Cc1cc(NC(=O)c2c(C)c(C(=O)C(=O)NCC(C)(C)O)n(C)c2-c2ccccn2)ccc1F [Example 159, N-(4-fluoro-3-methylphenyl)-5-(2-((2-hydroxy-2-methylpropyl)amino)-2-oxoacetyl)-1,4-dimethyl-2-(pyridin-2-yl)-1H-pyrrole-3-carboxamide]	> 30000	> 1000
CCc1c(C(=O)Nc2ccc(F)c(C)c2)c(C)c(C(=O)C(=O)N[C@]2(C)C[C@H](O)C2)n1C [Example 104, 2-ethyl-N-(4-fluoro-3-methylphenyl)-5-(2-(((1s,3s)-3-hydroxy-1-methylcyclobutyl)amino)-2-oxoacetyl)-1,4-dimethyl-1H-pyrrole-3-carboxamide]	> 30000	< 50
Cc1cc(NC(=O)c2c(C)c(C(=O)C(=O)NCC(C)(C)O)n(C)c2C2CCCC2)ccc1F [Example 135, 2-cyclopentyl-N-(4-fluoro-3-methylphenyl)-5-(2-((2-hydroxy-2-methylpropyl)amino)-2-oxoacetyl)-1,4-dimethyl-1H-pyrrole-3-carboxamide]	> 30000	50 to 499
Cc1cc(NC(=O)c2c(C)c(C(=O)C(=O)NC3(C)CNC(=O)C34CC4)n(C)c2C)ccc1F (stereo not shown) [Example 81, N-(4-fluoro-3-methylphenyl)-1,2,4-trimethyl-5-(2-((7-methyl-4-oxo-5-azaspiro[2.4]heptan-7-yl)amino)-2-oxoacetyl)-1H-pyrrole-3-carboxamide]	> 30000	< 50
Cc1cc(NC(=O)c2c(C3CC3)c(C(=O)C(=O)N[C@]3(C)C[C@H](O)C3)n(C)c2C)ccc1F [Example 98, 4-cyclopropyl-N-(4-fluoro-3-methylphenyl)-5-(2-(((1s,3s)-3-hydroxy-1-methylcyclobutyl)amino)-2-oxoacetyl)-1,2-dimethyl-1H-pyrrole-3-carboxamide]	> 30000	50 to 499
Cc1cc(NC(=O)c2c(C)c(C(=O)C(=O)N[C@H]3CC[C@@H](O)CC3)n(C)c2-c2ccccn2)ccc1F [Example 158, N-(4-fluoro-3-methylphenyl)-5-(2-(((1s,4s)-4-hydroxycyclohexyl)amino)-2-oxoacetyl)-1,4-dimethyl-2-(pyridin-2-yl)-1H-pyrrole-3-carboxamide]	> 30000	> 1000
Cc1cc(NC(=O)c2c(C)c(C(=O)C(=O)N[C@]3(C)C[C@H](O)C3)n(C)c2C2CCCC2)ccc1F [Example 132, 2-cyclopentyl-N-(4-fluoro-3-methylphenyl)-5-(2-(((1s,3s)-3-hydroxy-1-methylcyclobutyl)amino)-2-oxoacetyl)-1,4-dimethyl-1H-pyrrole-3-carboxamide]	> 30000	50 to 499
CCOC(=O)CO[C@H]1CC[C@@H](NC(=O)C(=O)c2c(C)c(C(=O)Nc3ccc(F)c(C)c3)c(C)n2C)CC1 [Example 26, ethyl 2-(((1s,4s)-4-(2-(4-((4-fluoro-3-methylphenyl)carbamoyl)-1,3,5-trimethyl-1H-pyrrol-2-yl)-2-oxoacetamido)cyclohexyl)oxy) acetate]	> 30000	> 1000
Cc1cc(NC(=O)c2c(C)c(C(=O)C(=O)N[C@@H]3CCN[C@H](C(=O)O)C3)n(C)c2C)ccc1F [Example 180, (2S,4R)-4-(2-(4-((4-fluoro-3-methylphenyl)carbamoyl)-1,3,5-trimethyl-1H-pyrrol-2-yl)-2-oxoacetamido)piperidine-2-carboxylic acid]	> 30000	> 1000
Cc1c(C(=O)Nc2ccc(F)c(C#N)c2)c(C)n(C)c1C(=O)C(=O)N[C@H]1CC[C@@H](O)CC1 [Example 17, N-(3-cyano-4-fluorophenyl)-5-(2-(((1s,4s)-4-hydroxycyclohexyl)amino)-2-oxoacetyl)-1,2,4-trimethyl-1H-pyrrole-3-carboxamide]	> 30000	< 50
Cc1cc(NC(=O)c2c(C)c(C(=O)C(=O)NCC(C)(C)O)n(C)c2CC2CC2)ccc1F [Example 127, 2-(cyclopropylmethyl)-N-(4-fluoro-3-methylphenyl)-5-(2-((2-hydroxy-2-methylpropyl)amino)-2-oxoacetyl)-1,4-dimethyl-1H-pyrrole-3-carboxamide]	5000 to 30000	< 50
Cc1cc(NC(=O)c2c(C)c(C(=O)C(=O)N[C@H]3CC[C@@H](O)CC3)n(C)c2CC2CC2)ccc1F [Example 126, 2-(cyclopropylmethyl)-N-(4-fluoro-3-methylphenyl)-5-(2-(((1s,4s)-4-hydroxycyclohexyl)amino)-2-oxoacetyl)-1,4-dimethyl-1H-pyrrole-3-carboxamide]	> 30000	< 50
CC(=O)N1CC[C@H](NC(=O)C(=O)c2c(C)c(C(=O)Nc3ccc(F)c(C)c3)c(C)n2C)C[C@H]1C [Example 78, 5-(2-(((2R,4S)-1-acetyl-2-methylpiperidin-4-yl)amino)-2-oxoacetyl)-N-(4-fluoro-3-methylphenyl)-1,2,4-trimethyl-1H-pyrrole-3-carboxamide]	> 30000	< 50
Cc1cc(NC(=O)c2c(C)c(C(=O)C(=O)N[C@]3(C)CC[C@H](O)CC3)n(C)c2-c2nccs2)ccc1F [Example 176, N-(4-fluoro-3-methylphenyl)-5-(2-(((1s,4s)-4-hydroxy-1-methylcyclohexyl)amino)-2-oxoacetyl)-1,4-dimethyl-2-(thiazol-2-yl)-1H-pyrrole-3-carboxamide]	> 30000	50 to 499
Cc1c(C(=O)Nc2cccc(Cl)n2)c(C)n(C)c1C(=O)C(=O)N[C@H]1CC[C@@H](O)CC1 [Example 12, N-(6-chloropyridin-2-yl)-5-(2-(((1s,4s)-4-hydroxycyclohexyl)amino)-2-oxoacetyl)-1,2,4-trimethyl-1H-pyrrole-3-carboxamide]	> 30000	50 to 499
Cc1cc(NC(=O)c2c(C)c(C(=O)C(=O)N[C@H]3[C@H]4CC[C@H](C4)[C@H]3CO)n(C)c2C)ccc1F [Example 21, N-(4-fluoro-3-methylphenyl)-5-(2-(((1S,2S,3R,4R)-3-(hydroxymethyl)bicyclo[2.2.1]heptan-2-yl)amino)-2-oxoacetyl)-1,2,4-trimethyl-1H-pyrrole-3-carboxamide]	> 30000	< 50
